# Reference: paper PMC10374108, “Structural and biochemical characterization of the key components of an auxin degradation operon from the rhizosphere bacterium Variovorax” (PLOS Biology, 2023)
# “And” between values parts separate entries of the source, which are not always exact repeats. Equal values may be shown once. Read-outs that look alike come from different tables or passages of the source.
# Tests used:
# IadK2 = IadK2 (Variovorax paradoxus, UniProt T1X8R6); assay: ITC, auxins binding to IadK2
# Description: (§1) ITC experiments were performed using a MicroCal PEAQ-ITC system (Malvern). All the experiments were performed at […] in a buffer containing 25 mM Tris-HCl (pH 7.5) and 150 mM NaCl (unless otherwise stated). […] Data was analyzed using the MicroCal PEAQ-ITC analysis software. All the measurements were repeated at least 2 times.
# IadK2 mutants = assay: Thermal shift assay (TSA), IadK2 mutants and IAA; type: binding, Variovorax paradoxus CL14; design: unit not given here; conditions: replicates
# Description: (§2) Ligands concentrations were tested at 2- to […] excess (10 to 1,000 μM) relative to the proteins (5 μM). The fluorescence dye SYPRO Orange at a final of 200-fold dilution was used to monitor the unfolding of proteins. The protein and ligand were incubated for 10 min at room temperature before the addition of SYPRO Orange dye. The QuantStudio 1 Plus real-time PCR system (Thermo Fisher) was used to control the temperature increasing from […] to […] with an increment of […] and to monitor the fluorescence (excitation: 520 ± 10 nm and emission: 558 ± 10 nm). Each tested group was run in triplicate and repeated. Data was imported to the Protein Thermal Shift software for analysis and plotting.
# IadK3 = assay: Thermal shift assay (TSA), IadK3 with IAA and analogs; type: binding, Variovorax paradoxus CL14; conditions: IadK3 with IAA, replicates
# Description: as §2
# IadJ = IadJ (Variovorax paradoxus, UniProt A0A0H2M0A9); assay: ITC, IAA binding to IadJ; design: species or system Variovorax paradoxus CL14
# Description: as §1
# Chain of IadJ (A0A0H2M0A9 entry or part of it): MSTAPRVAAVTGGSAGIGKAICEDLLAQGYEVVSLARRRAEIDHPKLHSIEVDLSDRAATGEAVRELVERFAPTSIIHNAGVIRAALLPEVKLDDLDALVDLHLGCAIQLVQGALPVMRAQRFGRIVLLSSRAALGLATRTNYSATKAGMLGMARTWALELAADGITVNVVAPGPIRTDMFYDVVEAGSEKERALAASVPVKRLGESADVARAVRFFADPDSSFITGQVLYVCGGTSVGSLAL
# Chain of IadK2 (T1X8R6 entry or part of it): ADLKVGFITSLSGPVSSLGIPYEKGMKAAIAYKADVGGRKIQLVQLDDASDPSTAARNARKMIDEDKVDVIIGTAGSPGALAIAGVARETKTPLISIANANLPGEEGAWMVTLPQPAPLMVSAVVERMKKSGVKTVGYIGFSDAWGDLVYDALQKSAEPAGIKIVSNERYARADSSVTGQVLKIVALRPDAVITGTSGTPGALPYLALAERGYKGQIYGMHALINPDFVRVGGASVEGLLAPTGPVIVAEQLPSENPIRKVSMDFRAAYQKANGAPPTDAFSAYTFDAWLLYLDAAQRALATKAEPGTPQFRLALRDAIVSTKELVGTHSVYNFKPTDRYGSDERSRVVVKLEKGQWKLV
smiles,measurement,setting,value
"O=C(O)Cc1c[nH]c2ccccc12 [IAA, indole-3-acetic acid]",Kd,"IadK2; ITC, biphasic isotherm, IadK2 + IAA, mean ± SEM, 3 measurements, read-out: KD1",530 ± 80 nM
same,Kd,"IadK2; ITC, biphasic isotherm, IadK2 + IAA, mean ± SEM, 3 measurements, read-out: KD2",9 ± 3.05 nM
same,Kd,"IadK2; IadK2, ITC, replicates, read-out: Kd1",500 nM and 600 nM (2×)
same,Kd,"IadK2; IadK2, ITC, replicates, read-out: Kd2",8.3 nM and 12 nM and 11.4 nM
same,Tm change with IAA (TSA),IadK2 mutants; IadK2 A125G,2.99 and 2.492 and 3.488
same,Tm change with IAA (TSA),IadK2 mutants; IadK2 A125T/N126P,1.993 and 1.495 (2×)
same,Tm change with IAA (TSA),IadK2 mutants; IadK2 A249G,3.986 and 4.485 and 5.4814
same,Tm change with IAA (TSA),IadK2 mutants; IadK2 F168G,0.4983
same,Tm change with IAA (TSA),IadK2 mutants; IadK2 F308G,1.495
same,Tm change with IAA (TSA),IadK2 mutants; IadK2 H248G,2.492 (2×) and 3.488
same,Tm change with IAA (TSA),IadK2 mutants; IadK2 N126A,3.488 (2×) and 2.99
same,Tm change with IAA (TSA),IadK2 mutants; IadK2 R199A,0.4983 and 0 (2×)
same,Tm change with IAA (TSA),IadK2 mutants; IadK2 S014V/W172L,0
same,Tm change with IAA (TSA),IadK2 mutants; IadK2 S104A,2.99 and 2.492 and 3.488
same,Tm change with IAA (TSA),IadK2 mutants; IadK2 S104V,2.492 and 1.495 and 1.993
same,Tm change with IAA (TSA),IadK2 mutants; IadK2 S224A,2.99 and 3.986 (2×)
same,Tm change with IAA (TSA),IadK2 mutants; IadK2 W172A,0.4983 and 0 (2×)
same,Tm change with IAA (TSA),IadK2 mutants; IadK2 W172L,0
same,Tm change with IAA (TSA),IadK2 mutants; IadK2 Y311A,0
same,ΔTm,IadK3,0.997 °C and -0.4983 °C and -0.9966 °C
same,IAA binding (ITC),IadJ,no binding detected
same,Kd,"IadJ; ITC, replicates",> 100000 nM
